Here are results for seven compounds from patent publication US20080057010A1, “METHOD FOR SKIN CARE” (NULIV SCIENCE LTD., priority 2006, published 2008).

Assay [1] deals with HA synthase 2 (HAS2). Kind of assay: Quantitative analysis of HA synthase 2 (HAS2) transcripts in HaCaT cells (qRT-PCR). The following applies: 0.1 μM, qRT-PCR normalized to GAPDH, relative to 0 = 1.00. Type of assay: cell-based, human. The protocol: Relative levels of HAS2 expression in HaCaT cells were determined by real-time quantitative reverse transcriptase polymerase chain reaction (qRT-PCR). Total RNAs were isolated from the cultured human cells using TRIzol reagent (Invitrogen, Irvine, Calif., USA). 1 μg of RNA was reverse transcribed, at 37° C. for 60 min in a 20 μl transcription mixture containing dNTP (0.5 mM), oligo-dT (0.1 μg), RNasin (10 units), 1×PCR buffer (20 mM Tris-HCl, pH 8.3; 2.5 mM MgCl2; 50 mM KCl), and 100 units of Moloney murine leukemia virus reverse transcriptase (Invitrogen). The cDNA product was phenol extracted, ethanol precipitated, and resuspended in 20 μl TE (20 mM Tris-Cl, pH 8.0 and 1 mM EDTA). qRT-PCR was performed using the Applied Biosystem 7300 system and pre-developed Taqman Gene Expression Assays (Applied Biosystems, Foster City, Calif., USA). The reaction mixtures (20-μl total volume) contained 2 μl of serially diluted cDNA, 10 μl of Taqman Universal PCR Master Mix (Applied Biosystems), and 1 μl of either human HAS-2 gene (assay ID Hs 00193435_ml, Applied Biosystems), or GAPDH primer mix (assay ID Hs99999905_ml, Applied Biosystems). The reactions were amplified as follows: 50° C. for 2 min and 95° C. for 10 min, followed by 40 cycles of 95° C. for 1 min and 65° C. for 1 min. Two independent triplicate experiments were performed for the selected genes. Relative quantitation was performed using the 7300 software (Applied Biosystems, Foster City, Calif., USA). Expression of HAS-2 was normalized to GAPDH expression in each sample.
In general terms: In qPCR the cycle at which signal appears reflects the starting amount.

Assay [2] deals with MMP-2. As to the kind of experiment: Zymography of MMP-2 in HaCaT cells. The following applies: relative to 0 = 1.00. Type of assay: cell-based, human. The protocol: The proteolytic activities of MMPs from HaCaT and HDF cells were measured essentially as described elsewhere (Circ Res, 1999; 85:906-911). The cells were seeded for 24 h and then treated with various concentrations of astragalosides for another 48 h. The conditioned culture medium was then centrifuged, 2-fold concentrated, and saved for assay of collagens and MMPs expressed into the culture medium. The cells were then lysed in lysis buffer (1% Triton, 50 mM Tris-Cl, pH 7.4, 180 mM NaCl, 1 mM EDTA). Protein concentration of the samples was measured using the bicinchoninic acid (BCA) protein assay kit as described. Samples of concentrated conditioned medium and cell lysates were mixed with non-reducing electrophoresis loading buffer and subjected to electrophoresis under non-reducing conditions, which was carried out on a 10% SDS-PAGE co-polymerized with 2 mg/mL gelatin or casein (Sigma, St. Louis, Mo. USA). For zymographic analysis of pro-MMP-2 and activated MMP-2, the total 20 μg of culture medium were used for electrophoresis. Following electrophoresis, renaturation of the proteins was achieved by incubating the gels in 25 g/L Triton X-100 at room temperature for 2×10 min. Subsequently the gels were incubated in 50 mM Tris-HCl, pH 7.5 containing 0.2 M NaCl, 0.02% Brij35 and 10 mM CaCl2 at 37° C. for 18 h. After staining the gels with Coomassie Brilliant Blue R-250 and destaining, zones of proteolytic activities became visible as transparent bands in the stained gel. In order to obtain higher sensitivity, the gels were further destained in a solution of 1% Triton x-100 (1 to 2 h). This procedure increased the signal-to-noise ratio, allowing the visualization of faint gelatinase bands at 92, 125 and greater than 200 kDa. Zymograms were read using a Molecular Dynamics (Sunnyvale, Calif., USA) computing laser densitometer with Image Quant software.
Results shown in Tables 6A and 6B represent the quantitated data from zymography analysis of MMP-2 protein in HaCaT cells and qRT-PCR for MMP-1 in HDF cells. The concentrations used were 0, 0.01. 0.1, 1 μM (if not indicated otherwise) for pure compounds; and were 0, 1, 10, 40 μg/mL for crude extract (if not indicated otherwise). The cells were treated with the indicated compounds for 24 h before harvested for analysis of Pro-MMP-2 or activated MMP-2 in whole cell extract. Fifty micrograms of the cell extract samples were used for electrophoresis.

Compound `CC(=O)O[C@H]1[C@H](O[C@H]2CC[C@]34C[C@]35CC[C@]3(C)[C@@H]([C@@]6(C)CC[C@@H](C(C)(C)O)O6)[C@@H](O)C[C@@]3(C)[C@@H]5C[C@H](O[C@@H]3O[C@H](CO)[C@@H](O)[C@H](O)[C@H]3O)[C@H]4C2(C)C)OC[C@@H](O)[C@@H]1O` [AS2, astragaloside II] came in with an HAS-2 in cell in assay [1] of 2.73. Further, the ProMMP-2/MMP2 in medium is on record as 0.89 in assay [2] (0.01 μM), 0.89 in assay [2] (0.1 μM) and 0.67 in assay [2] (1 μM).
As for `CC(=O)O[C@H]1[C@H](O[C@H]2CC[C@]34C[C@]35CC[C@]3(C)[C@@H]([C@@]6(C)CC[C@@H](C(C)(C)O)O6)[C@@H](O)C[C@@]3(C)[C@@H]5C[C@H](O[C@@H]3O[C@H](CO)[C@@H](O)[C@H](O)[C@H]3O)[C@H]4C2(C)C)OC[C@@H](OC(C)=O)[C@@H]1O` [isoAS1, isoastragaloside I], the HAS-2 in cell in assay [1] stood at 1.12.
Consider `CC(C)(O)[C@@H]1CC[C@](C)([C@H]2[C@@H](O)C[C@@]3(C)[C@@H]4C[C@H](O[C@@H]5O[C@H](CO)[C@@H](O)[C@H](O)[C@H]5O)[C@H]5C(C)(C)[C@@H](O[C@@H]6OC[C@@H](O)[C@H](O)[C@H]6O)CC[C@@]56C[C@@]46CC[C@]23C)O1` [AS4, astragaloside IV], for which the HAS-2 in cell in assay [1] came to 1.41.
As to astragaloside I [AS1], the ProMMP-2/MMP2 in medium came out at 0.57 in assay [2] (0.01 μM), 0.57 in assay [2] (0.1 μM) and 0.86 in assay [2] (1 μM).
Take `CC(C)(O)[C@@H]1CC[C@](C)([C@H]2[C@@H](O)C[C@@]3(C)[C@@H]4C[C@H](O[C@@H]5O[C@H](CO)[C@@H](O)[C@H](O)[C@H]5O)[C@H]5C(C)(C)[C@@H](O[C@@H]6OC[C@@H](O)[C@H](O)[C@H]6O[C@@H]6O[C@H](CO)[C@@H](O)[C@H](O)[C@H]6O)CC[C@@]56C[C@@]46CC[C@]23C)O1` [AS6, astragaloside VI]: the ProMMP-2/MMP2 in medium was determined as 0.89 in assay [2] (0.01 μM), 0.67 in assay [2] (0.1 μM) and 0.74 in assay [2] (1 μM).
Take `CC(C)(O)[C@@H]1CC[C@](C)([C@H]2[C@@H](O)C[C@@]3(C)[C@@H]4C[C@H](O)[C@H]5C(C)(C)[C@@H](O[C@@H]6OC[C@@H](O)[C@H](O)[C@H]6O[C@@H]6O[C@H](CO)[C@@H](O)[C@H](O)[C@H]6O)CC[C@@]56C[C@@]46CC[C@]23C)O1` [AS3, astragaloside III]: the ProMMP-2/MMP2 in medium in assay [2] (0.01 μM) is 0.76; in assay [2] (0.1 μM), 0.57; in assay [2] (1 μM), 0.81.
Take `CC(=O)O[C@@H]1[C@@H](O)[C@H](O[C@H]2CC[C@]34C[C@]35CC[C@]3(C)[C@@H]([C@@]6(C)CC[C@@H](C(C)(C)O)O6)[C@@H](O)C[C@@]3(C)[C@@H]5C[C@H](O[C@@H]3O[C@H](CO)[C@@H](O)[C@H](O)[C@H]3O)[C@H]4C2(C)C)OC[C@H]1O` [isoAS2, isoastragaloside II]: the HAS-2 in cell in assay [1] came to 1.28.
